We go through three compounds from US7063861B2, “Bioavailable composition of natural and synthetic HCA” (Sabinsa Corporation, priority 2000, dated 2006).

Series [1] can be described thus: Oral administration of garcinol, HCA and combination: body weight, food and fluid consumption in SKH-1 mice. The note with it: 0.05% GAR, 1% HCA, Mean ± SE. It counts as in vivo.
In series [2] the test system is azoxymethane (AOM)-induced formation of aberrant colonic crypts (AC). Put plainly: Azoxymethane (AOM)-induced formation of aberrant colonic crypts in CF-1 mice. It counts as in vivo. The note with it: 10 week oral, 0.05% GAR, 1% HCA.
Series [3] in a line: Body weight and accumulation of fat in abdomen in CF-1 mice, 10 week oral administration. It counts as in vivo. To be noted: 0.05% GAR, 1% HCA; for Body weight: AOM.
Another series has as its system TPA-induced ear edema. The series can be described thus: TPA-induced ear edema in female CF-1 mice. It counts as in vivo. The note with it: 5 hours; for Weight per punch: mean ± SE. As to the method: The role of garcinol as a chemopreventive agent has been confirmed in an experiment in which CF-1 mice were treated topically with the inflammation and tumor promoting agent, TPA. [table]

In the next series the test system is ATP citrate lyase enzyme. The note with it: in vitro, purified enzyme; cited from earlier work.
The conditions of series [4]: oral, before the feeding period; versus untreated controls; cited from earlier work.
The conditions of series [5]: rats fed (−) HCA; cited from earlier work.
For series [6], the target named is T1, ATP citrate lyase (Homo sapiens, UniProt P53396).
T1 construct: an in vitro study done on hepatic cells; endogenous in cells; host or cells: hepatic cells (species and cell type not specified)
T1 sequence (P53396 1-1101): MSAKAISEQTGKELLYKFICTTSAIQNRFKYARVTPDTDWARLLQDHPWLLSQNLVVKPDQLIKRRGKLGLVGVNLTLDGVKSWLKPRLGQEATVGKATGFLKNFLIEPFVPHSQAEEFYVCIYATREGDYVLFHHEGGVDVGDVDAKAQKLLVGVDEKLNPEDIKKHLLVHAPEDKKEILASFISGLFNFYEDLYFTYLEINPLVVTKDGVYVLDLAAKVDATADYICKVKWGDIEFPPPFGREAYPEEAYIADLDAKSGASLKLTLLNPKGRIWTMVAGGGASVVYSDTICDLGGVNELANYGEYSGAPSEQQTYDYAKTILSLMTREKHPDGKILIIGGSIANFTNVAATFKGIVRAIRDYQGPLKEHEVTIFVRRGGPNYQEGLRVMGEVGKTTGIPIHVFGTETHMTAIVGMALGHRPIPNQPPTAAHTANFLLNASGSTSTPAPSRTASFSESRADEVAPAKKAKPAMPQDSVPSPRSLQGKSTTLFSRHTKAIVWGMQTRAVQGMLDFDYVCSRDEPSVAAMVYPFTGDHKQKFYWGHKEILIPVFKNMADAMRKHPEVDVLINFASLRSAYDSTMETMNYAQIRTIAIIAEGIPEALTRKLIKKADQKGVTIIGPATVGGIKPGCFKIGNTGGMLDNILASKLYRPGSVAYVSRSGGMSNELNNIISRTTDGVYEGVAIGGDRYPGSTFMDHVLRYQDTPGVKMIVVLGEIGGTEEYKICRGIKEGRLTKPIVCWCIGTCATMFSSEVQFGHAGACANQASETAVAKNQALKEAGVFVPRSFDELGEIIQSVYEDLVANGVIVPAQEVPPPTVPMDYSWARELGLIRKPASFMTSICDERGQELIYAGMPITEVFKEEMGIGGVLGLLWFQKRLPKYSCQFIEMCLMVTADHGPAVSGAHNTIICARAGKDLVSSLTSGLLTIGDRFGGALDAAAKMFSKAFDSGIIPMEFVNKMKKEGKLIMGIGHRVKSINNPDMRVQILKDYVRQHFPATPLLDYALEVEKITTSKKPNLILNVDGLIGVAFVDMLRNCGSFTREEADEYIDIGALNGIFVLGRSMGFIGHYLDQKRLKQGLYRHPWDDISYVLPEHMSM
Put plainly: Inhibition of ATP citrate lyase in hepatic cells in vitro. To be noted: extracellular versus cytosol. It counts as cell-based. From the text: In their U.S. Patent, the Inventors addressed an important issue regarding the bioavailability of the HCA compounds. The U.S. Pat. No. 5,783,603 patent described a manufacturing process leading to a unique structure for a potassium salt of HCA, which facilitated its transport across biological membranes, effectively delivering more HCA into the cytosol for the competitive inhibition of ATP citrate lyase. […] Therefore, a 10-fold excess amount of potassium HCA is needed outside of the target cell in order to achieve a concentration of 1/10 that amount in the cytosol. This finding of relatively poor bioavailability of HCA, was confirmed in pre-clinical experiments (14), and points out the need to further improve the bioavailability and efficacy of HCA.

Series [7] has as its target T1, ATP citrate lyase. The note with it: cited from earlier work.
Setting [8] is: TPA 1 nmol + GAR 0.1 umol topical on ear.
[9] abbreviates: TPA 1 nmol + GAR 0.5 umol topical on ear.

As to `C=C(C)[C@@H](CC=C(C)C)C[C@@]12C[C@@H](CC=C(C)C)C(C)(C)[C@@](CC=C(C)C)(C(=O)C(C(=O)c3ccc(O)c(O)c3)=C1O)C2=O` [GAR, garcinol], the Body weight stood at 32.8 ± 0.37 gm in series [1] (5 weeks), 33.9 ± 0.14 gm in series [1] (7 weeks), 36.4 ± 0.55 gm in series [1] (10 weeks) and 37.3 ± 1.07 gm in series [3]. The AC per colon in [2] came out at 7.8. For the same compound, the “AC per colon, percentage in parentheses (reduction versus control)” value in series [2] worked out at 31.6%. In series [3], this compound came in with a parametrial fat of 1.21 ± 0.18 gm. In [3], this compound displayed a retroperitoneal fat of 0.85 ± 0.01 gm. Further, the “Percent Inhibition of ear edema” value in the series on TPA-induced ear edema (setting [8]) is recorded as 38.5%; in the series with TPA-induced ear edema (setting [9]), 77.5%. Besides, the Weight per punch in the series on TPA-induced ear edema (setting [8]) was 12.4 ± 0.81 mg; in the series on TPA-induced ear edema (setting [9]), 9.25 ± 0.66 mg.
In the case of `O=C(O)CC(O)(C(=O)O)C(O)C(=O)O` (stereo not drawn) [HCA, 1,2-dihydroxypropane-1,2,3-tricarboxylic acid], the Body weight in series [1] (5 weeks) was 32.5 ± 0.42 gm. Besides, the Body weight in series [1] (7 weeks) is reported as 34.5 ± 0.59 gm. Also, the Body weight in series [1] (10 weeks) turned out to be 36.8 ± 0.33 gm. Besides, in series [2], the AC per colon stood at 7.9 and the “AC per colon, percentage in parentheses (reduction versus control)” value is on record as 30.7%. Further, in series [3], the parametrial fat turned out to be 1.24 ± 0.06 gm, the retroperitoneal fat was 0.79 ± 0.04 gm and the Body weight amounted to 37.9 ± 0.66 gm. Also, the “inhibition of ATP citrate lyase enzyme” value in the series with ATP citrate lyase enzyme is given as “potent linear competitive inhibitor”. Further, in series [4], the food intake result is “consumed less food”; the “hepatic synthesis of fatty acids and cholesterol” value is reported as “significantly diminished”. Also, the “weight loss and cumulative food intake” value in series [5] is reported as “weight loss with no decrease in cumulative food intake”.
`O=C([O-])CC(O)(C(=O)[O-])C(O)C(=O)[O-].[K+].[K+].[K+]` (stereo not drawn) [potassium HCA]: the “excess needed outside the target cell over cytosol concentration” value on ATP citrate lyase [6] worked out at 10 fold. Also, the “concentration needed in the cytosol to effectively inhibit ATP citrate lyase” value at ATP citrate lyase [7] (cytosol) is recorded as 0.5 mM. For the same compound, the “extracellular concentration that could inhibit ATP citrate lyase” value on ATP citrate lyase [7] (hepatic cells, extracellular) is reported as 5 mM.
